Test results published in US7304083B2, “2-iminoimidazole derivatives (2)” (Eisai R&D Management Co., Ltd., priority 2001, dated 2007).
Structures can show the parent of a compound that is named as a salt.

Key:
PAR1 thrombin receptor = target: T1, PAR1 thrombin receptor (Homo sapiens, UniProt P25116); assay: Receptor binding assay ([3H] high affinity TRAP, platelet membrane); conditions: 25 nM [3H] high affinity TRAP, 37° C. for 1 hour, read-out: RBA IC50
T1 construct: centrifuged at 40,000 g for 60 minutes to yield platelet membrane; from tissue; host or cells: platelet membrane prepared from platelet rich plasma of a healthy adult donor
T1 sequence (P25116 22-425): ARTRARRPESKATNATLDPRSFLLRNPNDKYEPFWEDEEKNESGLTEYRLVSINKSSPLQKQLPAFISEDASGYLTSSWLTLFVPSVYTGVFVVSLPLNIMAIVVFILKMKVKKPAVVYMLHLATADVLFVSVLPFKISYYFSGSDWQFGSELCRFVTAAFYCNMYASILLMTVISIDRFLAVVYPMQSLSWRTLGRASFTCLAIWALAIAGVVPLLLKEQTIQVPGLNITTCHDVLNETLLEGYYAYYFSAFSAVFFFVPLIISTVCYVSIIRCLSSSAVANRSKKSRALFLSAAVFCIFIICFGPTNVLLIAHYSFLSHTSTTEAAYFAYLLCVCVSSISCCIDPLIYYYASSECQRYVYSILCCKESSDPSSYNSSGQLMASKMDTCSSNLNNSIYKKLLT
Method: Blood was sampled from a healthy adult who had taken no drugs for one week, and 3.8% citric acid (a ratio of 1:9 with respect to the blood) was added as an anticoagulant. The mixture was then centrifuged at 100 g for 10 minutes at room temperature to yield platelet rich plasma (PRP). The platelet precipitate obtained by centrifuging the PRP was homogenized with a Dounce homogenizer, and then centrifuged at 40,000 g for 60 minutes to yield platelet membrane. The platelet membrane was suspended in a solution prepared by adding DMSO (dimethyl sulfoxide) at 1% concentration to Buffer 1: a 50 mM Tris-HCl buffer containing 10 mM MgCl2 and 1 mM EGTA (ethylene glycol tetraacetic acid), and the suspension was stored at −80° C. Bovine albumin and DMSO were added to Buffer 1 at 0.1% and 20%, respectively, to make a preparation solution for the test compound. […] Next, 30 μl of liquid scintillator was added for measurement of the radioactivity of the plate using a Top Counter (Packard), the value of the radioactivity in the presence of the test compound minus non-specific binding portion was divided by the specific binding value (the value of the binding in the absence of the compound minus the non-specific binding portion) to determine the binding ratio, from which the IC50 value was calculated. […]

[1] = system: platelet rich plasma (PRP); assay: Inhibitory effects on platelet aggregation using platelet rich plasma (thrombin-induced); format: cell-based; conditions: Homo sapiens, 0.1 h, aggregation initiated with thrombin 0.5–1.5 units/ml, area under aggregation curve over 6 minutes, read-out: Thr IC50
Method: [Inhibitory Effects on Platelet Aggregation Using Platelet Rich Plasma]
Blood was sampled from a healthy adult who had taken no drugs for one week, and 3.8% citric acid (a ratio of 1:9 with respect to the blood) was added as an anticoagulant. The mixture was then centrifuged at 100 g for 10 minutes at room temperature to yield platelet rich plasma (PRP). The PRP-removed blood was further centrifuged at 1000 g for 10 minutes to yield platelet poor plasma (PPP). The number of platelet was counted using a multi-parameter automatic hemocyte counter (K4500, Sysmex), and the PRP was diluted to approximately 300,000/μl with the PPP. The platelet aggregation activity was determined in the following manner using an Aggregometer (MC Medical). […] After addition of thrombin, the aggregation reaction was examined for 6 minutes and the areas under the aggregation curves were compared to determine the inhibition ratio, from which the IC50 value was calculated.

[2] = system: Vascular smooth muscle cells (rSMC); assay: Rat smooth muscle cell proliferation assay (thrombin-stimulated, MTT); format: cell-based; conditions: 48 h; male SD rat aorta rSMC, thrombin 0.1 unit/ml, 2 days, MTT OD 590 nm; read-out: Rat SMC IC50
Method: [Rat Smooth Muscle Cell Proliferation Assay]
Vascular smooth muscle cells (rSMC) were isolated from male SD rat aorta by the explant method. DMEM medium (Sigma) containing 10% fetal bovine serum (GibcoBRL), streptomycin and penicillin was used as the proliferation medium, and subculture was carried out at 37° C. in the presence of 5% CO2. Culture was initiated after adding 100 μl of rSMC suspension in proliferation medium at a concentration of 1×10^4 cells/ml, to a 96-well plate. After 3 days, cells were rinsed twice with 100 μl of DMEM medium, the medium was exchanged with 100 μl of DMEM medium containing 0.1% albumin (starvation medium), and serum starvation was initiated. […]
Upon adding 20 μl of MTT (3-[4,5-dimethylthiazol-2-yl]-2,5-diphenyltetrazolium bromide) dissolved in DPBS to 7.5 mg/ml, incubation was continued for 4 hours. […] As an index of cell proliferation, the OD 590 nm was measured using a plate reader (EL340, BIO-TEK Instruments Inc.), and the control OD value (OD value in the absence of the test compound) minus the OD value in the presence of the test compound was divided by the control OD value minus the blank OD value (OD value without thrombin stimulation) to determine the inhibition ratio, from which the IC50 value was calculated.

Structure (SMILES) | IC50 (PAR1 thrombin receptor) [nM] | IC50 [1] [nM] | IC50 [2] [nM]
CCC(CC)CCn1ccn(CC(=O)c2cc(C(C)(C)C)c(O)c(C(C)(C)C)c2)c1=N [Example 1, 1-(3,5-Di-tert-butyl-4-hydroxy-phenyl)-2-[3-(3-ethyl-pentyl)-2-imino-2,3-dihydro-imidazol-1-yl]-ethanone hydrobromide] | 74 | 540 | 300
CC(C)(C)c1cc(C(=O)Cn2ccn(Cc3ccccc3)c2=N)cc(C(C)(C)C)c1O [Example 2, 2-(3-Benzyl-2-imino-2,3-dihydro-imidazol-1-yl)-1-(3,5-di-tert-butyl-4-hydroxy-phenyl)-ethanone hydrobromide] | 250 | 2400 | 960
